We go through twelve compounds from ChEMBL document CHEMBL5154752, “CLIPSing Melanotan-II to Discover Multiple Functionally Selective hMCR Agonists” (J Med Chem, 2022).

Structures are written as SMILES.

The target in assay [1] is T1, Melanocyte-stimulating hormone receptor (Homo sapiens, UniProt Q01726). Put plainly: Agonist activity at human MC1R expressed in HEK293 cells assessed as maximal intracellular cAMP accumulation by fluorescence based analysis. Type of assay: functional, cell-based. On the technique in general: cAMP levels reflect the balance of adenylyl cyclase and phosphodiesterase activity.
Target sequence in this assay (Q01726 whole entry): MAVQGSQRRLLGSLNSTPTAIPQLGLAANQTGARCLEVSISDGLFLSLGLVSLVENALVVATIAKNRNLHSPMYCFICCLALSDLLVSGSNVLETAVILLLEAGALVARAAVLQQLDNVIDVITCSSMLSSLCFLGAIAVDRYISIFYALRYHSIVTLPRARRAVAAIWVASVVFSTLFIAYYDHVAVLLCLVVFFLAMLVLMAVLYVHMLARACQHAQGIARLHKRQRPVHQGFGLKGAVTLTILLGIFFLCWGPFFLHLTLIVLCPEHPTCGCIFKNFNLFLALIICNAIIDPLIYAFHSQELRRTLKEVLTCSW

For assay [2], the target named is T1, Melanocyte-stimulating hormone receptor. Put plainly: Agonist activity at human MC1R expressed in HEK293 cells assessed as maximal intracellular cAMP accumulation at 10 uM by fluorescence based analysis relative to control. Type of assay: functional, cell-based. The note with it: filed as agonist.
Target sequence in this assay (Q01726 whole entry, looked up): as the sequence (Q01726 whole entry) above
The target in assay [3] is T2, Melanocortin receptor 3 (Homo sapiens, UniProt P41968). Description: Agonist activity at human MC3R expressed in HEK293 cells assessed as maximal intracellular cAMP accumulation by fluorescence based analysis. Type of assay: functional, cell-based.
In assay [4] the target is T3, Melanocortin receptor 5 (Homo sapiens, UniProt P33032). Put plainly: Agonist activity at human MC5R expressed in HEK293 cells assessed as maximal intracellular cAMP accumulation at 10 uM by fluorescence based analysis relative to control. It counts as functional, cell-based. The note with it: filed as agonist.
Assay [5] has as its target T4, Melanocortin receptor 4 (Homo sapiens, UniProt P32245). Put plainly: Displacement of [125I]NDP-alpha-MSH from human MC4R expressed in HEK293 cells by competitive binding assay. It counts as cell-based. (Displacement assays read how much labelled ligand stays bound in the presence of the test substance.)
The target of assay [6] is T2, Melanocortin receptor 3. Description: Displacement of [125I]NDP-alpha-MSH from human MC3R expressed in HEK293 cells by competitive binding assay. It counts as cell-based.
Assay [7] concerns the target T3, Melanocortin receptor 5. Put plainly: Agonist activity at human MC5R expressed in HEK293 cells assessed as maximal intracellular cAMP accumulation by fluorescence based analysis. Type of assay: functional, cell-based.
In assay [8] the target is T3, Melanocortin receptor 5. Put plainly: Displacement of [125I]NDP-alpha-MSH from human MC5R expressed in HEK293 cells by competitive binding assay. Type of assay: cell-based.
Assay [9] deals with T2, Melanocortin receptor 3. Put plainly: Agonist activity at human MC3R expressed in HEK293 cells assessed as maximal intracellular cAMP accumulation at 10 uM by fluorescence based analysis relative to control. Type of assay: functional, cell-based. The note with it: filed as agonist.
Assay [10] concerns the target T1, Melanocyte-stimulating hormone receptor. Put plainly: Displacement of [125I]NDP-alpha-MSH from human MC1R expressed in HEK293 cells by competitive binding assay. Type of assay: cell-based.
Target sequence in this assay (Q01726 whole entry): as above
In assay [11] the target is T4, Melanocortin receptor 4. Description: Agonist activity at human MC4R expressed in HEK293 cells assessed as maximal intracellular cAMP accumulation by fluorescence based analysis. Type of assay: functional, cell-based.
The target of assay [12] is T3, Melanocortin receptor 5. Description: Agonist activity at human MC5R expressed in HEK293 cells assessed as cAMP accumulation at 10 uM by fluorescence based analysis relative to control. Type of assay: functional, cell-based.

T2 sequence (P41968 whole entry): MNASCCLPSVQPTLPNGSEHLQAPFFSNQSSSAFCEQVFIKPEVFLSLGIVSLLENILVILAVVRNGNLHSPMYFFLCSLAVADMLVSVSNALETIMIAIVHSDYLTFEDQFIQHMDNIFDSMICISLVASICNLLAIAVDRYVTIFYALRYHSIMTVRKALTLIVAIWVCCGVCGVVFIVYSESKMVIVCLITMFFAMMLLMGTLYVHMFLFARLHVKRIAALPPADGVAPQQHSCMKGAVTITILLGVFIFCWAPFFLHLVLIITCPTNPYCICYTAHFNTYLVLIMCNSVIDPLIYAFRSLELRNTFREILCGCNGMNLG
T4 sequence (P32245 whole entry): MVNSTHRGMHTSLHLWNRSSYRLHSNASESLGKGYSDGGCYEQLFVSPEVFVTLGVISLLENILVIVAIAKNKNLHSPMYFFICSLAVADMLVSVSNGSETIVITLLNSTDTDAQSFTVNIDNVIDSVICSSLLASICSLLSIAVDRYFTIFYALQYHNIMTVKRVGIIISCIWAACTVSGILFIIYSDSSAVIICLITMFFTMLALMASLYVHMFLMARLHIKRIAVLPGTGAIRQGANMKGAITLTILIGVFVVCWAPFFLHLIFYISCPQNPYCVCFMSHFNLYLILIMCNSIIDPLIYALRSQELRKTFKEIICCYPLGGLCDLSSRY
T3 sequence (P33032 whole entry): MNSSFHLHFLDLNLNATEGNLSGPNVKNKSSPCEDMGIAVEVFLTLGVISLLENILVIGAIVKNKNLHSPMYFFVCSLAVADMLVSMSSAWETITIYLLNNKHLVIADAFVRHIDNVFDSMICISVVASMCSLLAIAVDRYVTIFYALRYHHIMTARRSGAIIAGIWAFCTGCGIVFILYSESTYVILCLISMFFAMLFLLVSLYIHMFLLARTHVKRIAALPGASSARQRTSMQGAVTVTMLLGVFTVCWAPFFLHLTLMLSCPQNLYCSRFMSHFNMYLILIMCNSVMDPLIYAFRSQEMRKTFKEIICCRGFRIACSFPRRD

For orientation: EC50 means the midpoint of the concentration-response curve. As a reminder, the IC50 is the concentration that gives 50% inhibition. A low value points to higher potency. With `CCCC[C@H](NC(C)=O)C(=O)N[C@@H]1C(=O)N[C@@H](Cc2c[nH]cn2)C(=O)N[C@H](Cc2ccccc2)C(=O)N[C@@H](CCCNC(=N)N)C(=O)N[C@@H](Cc2c[nH]c3ccccc23)C(=O)N[C@H](C(N)=O)CSCc2cccc(c2)CSC1(C)C`, the EC50 was more than 1000 nM in [1], 9.4 nM in assay [3], 126 nM in assay [7] and 618 nM in assay [11]. The Activity in assay [2], in [4] and in [9] was 100% in each case. The IC50 in assay [5] amounted to 628 nM; in assay [6], 244 nM; in [8], 93.5 nM; in [10], 70 nM.
For `CCCC[C@H](NC(C)=O)C(=O)N[C@H]1CSCc2ccccc2CSC[C@@H](C(N)=O)NC(=O)[C@H](Cc2c[nH]c3ccccc23)NC(=O)[C@H](CCCNC(=N)N)NC(=O)[C@@H](Cc2ccccc2)NC(=O)[C@H](Cc2c[nH]cn2)NC1=O`, the EC50 in [1] was 107 nM; in assay [3], more than 1000 nM; in assay [7], more than 1000 nM; in assay [11], 360 nM. Also, the Activity in assay [2], in assay [4] and in assay [9] was 100% in each case. Also, the IC50 is 9.1 nM in assay [5], 302 nM in [6], 78 nM in assay [8] and 275 nM in assay [10].
For the compound `CCCC[C@H](NC(C)=O)C(=O)N[C@@H]1C(=O)N[C@@H](Cc2c[nH]cn2)C(=O)N[C@H](Cc2ccccc2)C(=O)N[C@@H](CCCNC(=N)N)C(=O)N[C@@H](Cc2c[nH]c3ccccc23)C(=O)N[C@H](C(N)=O)C(C)(C)SCc2ccccc2CSC1(C)C`, the IC50 in [5] is more than 1000 nM; in assay [6], 452 nM; in [8] it was 507 nM; in [10], 553 nM.
Turning to `CCCC[C@H](NC(C)=O)C(=O)N[C@H]1CSCc2cccc(c2)CSC(C)(C)[C@@H](C(N)=O)NC(=O)[C@H](Cc2c[nH]c3ccccc23)NC(=O)[C@H](CCCNC(=N)N)NC(=O)[C@@H](Cc2ccccc2)NC(=O)[C@H](Cc2c[nH]cn2)NC1=O`, the EC50 in [1] was 6.5 nM; in assay [3] it was 435 nM; in [7] it was more than 1000 nM. Moreover, the values for the IC50 in assay [6], in assay [8] and in [10] were 71 nM, 30 nM and 9 nM, respectively.
As for `CCCC[C@H](NC(C)=O)C(=O)N[C@H]1CSCc2ccc(cc2)CSC(C)(C)[C@@H](C(N)=O)NC(=O)[C@H](Cc2c[nH]c3ccccc23)NC(=O)[C@H](CCCNC(=N)N)NC(=O)[C@@H](Cc2ccccc2)NC(=O)[C@H](Cc2c[nH]cn2)NC1=O`, the EC50 came to 3 nM in [1], 246 nM in assay [3], 48 nM in assay [7] and 219 nM in assay [11]. Further, the Activity in assay [2], in assay [4] and in assay [9] was 100% in each case. The IC50 in [5] stood at 57.2 nM; in [6], 64 nM; in assay [8], 69 nM; in assay [10], 19 nM.
In the case of `CCCC[C@H](NC(C)=O)C(=O)N[C@H]1CSCc2ccccc2CSC(C)(C)[C@@H](C(N)=O)NC(=O)[C@H](Cc2c[nH]c3ccccc23)NC(=O)[C@H](CCCNC(=N)N)NC(=O)[C@@H](Cc2ccccc2)NC(=O)[C@H](Cc2c[nH]cn2)NC1=O`, the EC50 was 6.1 nM in assay [1], more than 1000 nM in [3] and more than 1000 nM in assay [11]. Also, the Activity in [2] was found to be 100%; in [12], 0%; in assay [4], 100%; in [9], 100%. The IC50 was found to be 45.8 nM in assay [5], 74 nM in [6], 46 nM in assay [8] and 44 nM in assay [10].
On to `CCCC[C@H](NC(C)=O)C(=O)N[C@@H]1C(=O)N[C@@H](Cc2c[nH]cn2)C(=O)N[C@H](Cc2ccccc2)C(=O)N[C@@H](CCCNC(=N)N)C(=O)N[C@@H](Cc2c[nH]c3ccccc23)C(=O)N[C@H](C(N)=O)CSCc2ccc(cc2)CSC1(C)C`, for which the 50% inhibitory concentration (IC50) is more than 1000 nM in [5], more than 1000 nM in assay [6], 422 nM in [8] and 227 nM in assay [10].
For the compound `CCCC[C@H](NC(C)=O)C(=O)N[C@@H]1C(=O)N[C@@H](Cc2c[nH]cn2)C(=O)N[C@H](Cc2ccccc2)C(=O)N[C@@H](CCCNC(=N)N)C(=O)N[C@@H](Cc2c[nH]c3ccccc23)C(=O)N[C@H](C(N)=O)C(C)(C)SCc2cccc(c2)CSC1(C)C`, the IC50 in assay [5] is more than 1000 nM; in assay [6] it was 450 nM; in assay [8] it was 172 nM; in assay [10], 450 nM.
`CCCC[C@H](NC(C)=O)C(=O)N[C@H]1CSCc2ccc(cc2)CSC[C@@H](C(N)=O)NC(=O)[C@H](Cc2c[nH]c3ccccc23)NC(=O)[C@H](CCCNC(=N)N)NC(=O)[C@@H](Cc2ccccc2)NC(=O)[C@H](Cc2c[nH]cn2)NC1=O`: the EC50 in [1] was 4 nM; in assay [3], 645 nM; in assay [7] it was more than 1000 nM. The IC50 in assay [6] is 24 nM; in assay [8], 2 nM; in assay [10], 7.3 nM.
For `CCCC[C@H](NC(C)=O)C(=O)N[C@H]1CSCc2cccc(c2)CSC[C@@H](C(N)=O)NC(=O)[C@H](Cc2c[nH]c3ccccc23)NC(=O)[C@H](CCCNC(=N)N)NC(=O)[C@@H](Cc2ccccc2)NC(=O)[C@H](Cc2c[nH]cn2)NC1=O`, the values for the EC50 in [1], in assay [3] and in assay [7] were 3 nM, 902 nM and more than 1000 nM, respectively. In addition, the IC50 in assay [6] was 32 nM; in assay [8], 4.4 nM; in assay [10], 3.5 nM.
With `CCCC[C@H](NC(C)=O)C(=O)N[C@@H]1C(=O)N[C@@H](Cc2c[nH]cn2)C(=O)N[C@H](Cc2ccccc2)C(=O)N[C@@H](CCCNC(=N)N)C(=O)N[C@@H](Cc2c[nH]c3ccccc23)C(=O)N[C@H](C(N)=O)CSCc2ccccc2CSC1(C)C`, the IC50 in [5] stood at 619 nM; in assay [6] it was 222 nM; in assay [8] it was 157 nM; in assay [10] it was 150 nM.
In the case of `CCCC[C@H](NC(C)=O)C(=O)N[C@@H]1C(=O)N[C@@H](Cc2c[nH]cn2)C(=O)N[C@H](Cc2ccccc2)C(=O)N[C@@H](CCCNC(=N)N)C(=O)N[C@@H](Cc2c[nH]c3ccccc23)C(=O)N[C@H](C(N)=O)C(C)(C)SCc2ccc(cc2)CSC1(C)C`, the IC50 in assay [5], in assay [6], in assay [8] and in assay [10] was more than 1000 nM throughout.
